Results: patent publication US20260083708A1, “IL-17 MODULATORS AND USES THEREOF” (NNOCARE PHARMA INC., priority 2024, published 2026)
pIC50: −log10 of the molar value.

Legend:
IL-17AA and IL-17RA = target: T1, IL-17AA and IL-17RA (Homo sapiens, UniProt Q16552); experiment: Competitive inhibition of human IL-17AA and IL-17RA binding (HTRF); conditions: recombinant IL-17AA (His-tag) and IL-17RA (hFc-tag); read-out: IC50 for Inhibiting IL-AA/IL-RA Binding
T1 construct: purchased Sino Biological 12047-H07B (IL-17AA); 10895-H02H (IL-17RA)
T1 sequence (Q16552 24-155): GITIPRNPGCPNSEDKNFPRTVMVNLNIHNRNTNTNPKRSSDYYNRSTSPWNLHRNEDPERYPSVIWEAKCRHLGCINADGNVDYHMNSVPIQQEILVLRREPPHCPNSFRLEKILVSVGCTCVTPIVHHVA
Protocol: Example 42. Competitive Inhibition of Human IL-17AA and IL-17RA Binding
Recombinant IL-17AA (His-tag, Catalog Number 12047-H07B) and IL-17RA (hFc-tag, Catalog Number 10895-H02H) were purchased from Sino Biological. In the experiment, 10 μL of IL-17AA (1 nM) or IL-17RA (1 nM) was added to 10 μL of anti-6His-Tb (0.4 nM, Revvity, Catalog Number 61HISTLF) or anti-human IgG-d2 (1 μg/mL, anti-human IgG-d2, Revvity, Catalog Number 61HFCDAF), respectively and incubated at room temperature for 1 hour. Compounds were serially diluted starting from 10 μM. 5 μL of each compound solution was incubated with 5 μL of a mixture of IL-17AA and anti-6His-Tb at room temperature for 2 hours. After pre-incubation, to which was added 10 μL of a mixture of IL-17RA and anti-human IgG-d2, and incubation was continued for additional 20 minutes. Subsequently, a microplate reader (Envision, PerkinElmer) was used to detect fluorescence intensity at 615 nm and 665 nm, and the ratio of intensity thereof indicates the degree of IL-17AA and IL-17RA interaction. The ratio of intensity in the absence of tested compound was the highest value of binding between IL-17AA and IL-17RA, and the ratio of intensity in the absence of IL-17AA was the lowest value.
(§1) Therefore, the percentage of inhibition of tested compound was calculated as
Experimental results were analyzed using XLfit (IDBS) for 4-parameter nonlinear fitting analysis, to provide the IC50 value for each tested compound (Table 1).

[1] = system: IL-17AA-induced IL-17 signaling pathway; experiment: Inhibition of IL-17AA-induced IL-17 signaling pathway in HEK-Blue IL-17 reporter cells (SEAP); type: cell-based; conditions: Homo sapiens; HEK-Blue IL-17 cells, IL-17AA 2.5 ng/mL, 20 hours; read-out: IC50 for Inhibiting IL-AA Signaling
Source text: Example 43. Inhibition of IL-17AA-Induced IL-17 Signaling Pathway
(§2) Interleukin-17 (IL-17) reporter cell line (HEK-Blue IL-17, InvivoGen, Catalog Number hkb-i117) is created by genetically engineering human IL-17RA/IL-17RC heterodimeric receptor and downstream adapter protein ACT1 into human embryonic kidney 293 cells (HEK293). These cells also express secreted embryonic alkaline phosphatase (SEAP) reporter gene induced by NF-κB and AP-1. Therefore, IL-17AA can activate NF-κB and AP-1 signaling pathways inside the cells by binding to IL-17RA/RC on cell membrane, leading to expression of SEAP protein. After a colorimetric reaction between SEAP protein and Quanti-Blue solution, the absorbance at 620 nm is measured using a microplate reader (BioTek H1M, Agilent, Catalog Number SH1M-SN) to determine IL-17AA-activated signaling pathway.
(§3) In the experiment, HEK-Blue IL-17 cells were cultured at 37° C. under 5% CO2 conditions using the recommended medium from InvivoGen's instruction. Compounds were serially diluted starting from 10 μM. 4 μL of each compound solution was added to 32 μL of cells (10,000 cells) at 37° C. for 1 hour. After pre-incubation, 4 μL of IL-17AA with a final concentration of 2.5 ng/mL (Sino Biological, Catalog Number 12047-HNAS) was added to the cells, and incubation was continued for additional 20 hours. After incubation, 5 μL of cell culture supernatant was added to 45 μL of Quanti-Blue for the colorimetric reaction. The group without tested compound had the highest absorbance at 620 nm, and the group without IL-17AA had the lowest absorbance at 620 nm.
as §1
(§4) Experimental results were analyzed using XLfit (IDBS) for 4-parameter nonlinear fitting analysis to provide the IC50 value for each tested compound (Table 1).

[2] = system: IL-17AF-induced IL-17 signaling pathway; experiment: Inhibition of IL-17AF-induced IL-17 signaling pathway; type: cell-based; conditions: Homo sapiens; IL-17AF used instead of IL-17AA; read-out: IC50 for Inhibiting IL-AF Signaling
Source text: as §2, §3, §1, §4
Example 44. Inhibition of IL-17AF-Induced IL-17 Signaling Pathway
The same experimental procedure to Example […] was followed where IL-17AF was used instead of IL-17AA.

| pIC50 (IL-17AA and IL-17RA) | pIC50 [1] | pIC50 [2] | Compound |
| --- | --- | --- | --- |
| 8.00 | 7.77 | 7.70 | COCC(=O)N[C@@H](c1nncn1CC1CC1)[C@@H](C)c1ccc(NC(=O)[C@@H](NC(=O)c2ccnn2C(C)C)C(C2CC2)C2CC2)c(F)c1 [Compound 4, N-((S)-1,1-dicyclopropyl-3-((4-((1R,2S)-1-(4-(cyclopropylmethyl)-4H-1,2,4-triazol-3-yl)-1-(2-methoxyacetamido)propan-2-yl)-2-fluorophenyl)amino)-3-oxopropan-2-yl)-1-isopropyl-1H-pyrazole-5-carboxamide] |
| 8.66 | 8.74 | 8.43 | CCn1nccc1C(=O)N[C@H](C(=O)Nc1ccc([C@H](C)[C@@H](NC(=O)N(C)C2CC2)c2nncn2CC2CC2)cc1F)C(C1CC1)C1CC1 [Compound 21, N-((S)-1,1-dicyclopropyl-3-((4-((1R,2S)-1-(3-cyclopropyl-3-methylureido)-1-(4-(cyclopropylmethyl)-4H-1,2,4-triazol-3-yl)propan-2-yl)-2-fluorophenyl)amino)-3-oxopropan-2-yl)-1-ethyl-1H-pyrazole-5-carboxamide] |
| 7.32 | 6.42 | 6.29 | CCC(=O)N[C@@H](c1ncnn1CC1CC1)[C@@H](C)c1ccc(NC(=O)[C@@H](NC(=O)c2ccnn2CC)C2CCC3(CC2)CC(F)(F)C3)c(F)c1 [Compound 78, N-((S)-2-((4-((1R,2S)-1-(1-(cyclopropylmethyl)-1H-1,2,4-triazol-5-yl)-1-propionamidopropan-2-yl)-2-fluorophenyl)amino)-1-(2,2-difluorospiro[3.5]nonan-7-yl)-2-oxoethyl)-1-ethyl-1H-pyrazole-5-carboxamide] |
| 7.68 | 7.60 | 7.04 | CCn1nccc1C(=O)N[C@H](C(=O)Nc1ccc([C@H](C)[C@@H](NC(=O)COC)c2nncn2CC23CC(F)(C2)C3)cc1F)C(C1CC1)C1CC1 [Compound 23, N-((S)-1,1-dicyclopropyl-3-((2-fluoro-4-((1R,2S)-1-(4-((3-fluorobicyclo[1.1.1]pentan-1-yl)methyl)-4H-1,2,4-triazol-3-yl)-1-(2-methoxyacetamido)propan-2-yl)phenyl)amino)-3-oxopropan-2-yl)-1-ethyl-1H-pyrazole-5-carboxamide] |
| 8.59 | 8.19 | 7.74 | [2H]C([2H])([2H])n1nccc1C(=O)N[C@H](C(=O)Nc1ccc([C@H](C)[C@@H](NC(=O)CC)c2ncnn2CC2CC2)cc1F)C(C1CC1)C1CC1 [Compound 62, N-((S)-1,1-dicyclopropyl-3-((4-((1R,2S)-1-(1-(cyclopropylmethyl)-1H-1,2,4-triazol-5-yl)-1-propionamidopropan-2-yl)-2-fluorophenyl)amino)-3-oxopropan-2-yl)-1-(methyl-d3)-1H-pyrazole-5-carboxamide] |
| 8.43 | 8.70 | 8.66 | CCn1nccc1C(=O)N[C@H](C(=O)Nc1ccc([C@H](C)[C@@H](NC(=O)COC)c2ncnn2CC(C)C)cc1F)C(C1CC1)C1CC1 [Compound 36, N-((S)-1,1-dicyclopropyl-3-((2-fluoro-4-((1R,2S)-1-(1-isobutyl-1H-1,2,4-triazol-5-yl)-1-(2-methoxyacetamido)propan-2-yl)phenyl)amino)-3-oxopropan-2-yl)-1-ethyl-1H-pyrazole-5-carboxamide] |
| 8.10 | 8.51 | 8.11 | COCC(=O)N[C@@H](c1ncnn1CC1CC1)[C@@H](C)c1ccc(NC(=O)[C@@H](NC(=O)c2ccnn2C(C)C)C(C2CC2)C2CC2)c(F)c1 [Compound 33, N-((S)-1,1-dicyclopropyl-3-((4-((1R,2S)-1-(1-(cyclopropylmethyl)-1H-1,2,4-triazol-5-yl)-1-(2-methoxyacetamido)propan-2-yl)-2-fluorophenyl)amino)-3-oxopropan-2-yl)-1-isopropyl-1H-pyrazole-5-carboxamide] |
| 6.82 | 6.71 | 5.92 | CCn1nccc1C(=O)N[C@H](C(=O)Nc1ccc([C@H](C)[C@@H](NC(=O)COC)c2ncnn2CC2CC2)cc1OC)C(C1CC1)C1CC1 [Compound 45, N-((S)-1,1-dicyclopropyl-3-((4-((1R,2S)-1-(1-(cyclopropylmethyl)-1H-1,2,4-triazol-5-yl)-1-(2-methoxyacetamido)propan-2-yl)-2-methoxyphenyl)amino)-3-oxopropan-2-yl)-1-ethyl-1H-pyrazole-5-carboxamide] |
| 8.28 | 8.41 | 8.05 | COCC(=O)N[C@@H](c1nncn1CC1CC1)[C@@H](C)c1ccc(NC(=O)[C@@H](NC(=O)C(F)(F)c2ccc(OC)nc2)C(C2CC2)C2CC2)c(F)c1 [Compound 7, (S)-3,3-dicyclopropyl-N-(4-((1R,2S)-1-(4-(cyclopropylmethyl)-4H-1,2,4-triazol-3-yl)-1-(2-methoxyacetamido)propan-2-yl)-2-fluorophenyl)-2-(2,2-difluoro-2-(6-methoxypyridin-3-yl)acetamido)propanamide] |
| 8.35 | 8.59 | 8.40 | CCn1nccc1C(=O)N[C@H](C(=O)Nc1ccc([C@H](C)[C@@H](NC(=O)COC)c2ncnn2CC2CC2)cc1F)C(C1CC1)C1CC1 [Compound 19, N-((S)-1,1-dicyclopropyl-3-((4-((1R,2S)-1-(1-(cyclopropylmethyl)-1H-1,2,4-triazol-5-yl)-1-(2-methoxyacetamido)propan-2-yl)-2-fluorophenyl)amino)-3-oxopropan-2-yl)-1-ethyl-1H-pyrazole-5-carboxamide] |
| 8.49 | 8.60 | 8.00 | CCn1nccc1C(=O)N[C@H](C(=O)Nc1ccc([C@H](C)[C@@H](NC(=O)COC)c2nnnn2CC2CC2)cc1F)C(C1CC1)C1CC1 [Compound 24, N-((S)-1,1-dicyclopropyl-3-((4-((1R,2S)-1-(1-(cyclopropylmethyl)-1H-tetrazol-5-yl)-1-(2-methoxyacetamido)propan-2-yl)-2-fluorophenyl)amino)-3-oxopropan-2-yl)-1-ethyl-1H-pyrazole-5-carboxamide] |
| 8.25 | 7.96 | 7.49 | CCC(=O)N[C@@H](c1ncnn1CC1CC1)[C@@H](C)c1ccc(NC(=O)[C@@H](NC(=O)c2ccnn2CC)C2CCC(=C(F)F)CC2)c(F)c1 (stereo partly drawn) [Compound 77, N-((S)-2-((4-((1R,2S)-1-(1-(cyclopropylmethyl)-1H-1,2,4-triazol-5-yl)-1-propionamidopropan-2-yl)-2-fluorophenyl)amino)-1-(4-(difluoromethylene)cyclohexyl)-2-oxoethyl)-1-ethyl-1H-pyrazole-5-carboxamide] |
| 8.54 | 8.64 | 8.05 | CCc1nonc1C(=O)N[C@H](C(=O)Nc1ccc([C@H](C)[C@@H](NC(=O)COC)c2nncn2CC2CC2)cc1F)C(C1CC1)C1CC1 [Compound 14, N-((S)-1,1-dicyclopropyl-3-((4-((1R,2S)-1-(4-(cyclopropylmethyl)-4H-1,2,4-triazol-3-yl)-1-(2-methoxyacetamido)propan-2-yl)-2-fluorophenyl)amino)-3-oxopropan-2-yl)-4-ethyl-1,2,5-oxadiazole-3-carboxamide] |
